Data: patent US20240174696A1, “2,8-DIAZASPIRO[4.5]DECANE COMPOUNDS” (Genentech, Inc., priority 2021, published 2024)

Columns and labels:
[1] = tested on: TAZ nuclear translocation in SW1990 cells; test: TAZ Nuclear Translocation Assay; format: cell-based; conditions: Homo sapiens, 4 hours
Summary of the method: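 SW1990 cells in RPMI1640/10% FBS treated with compounds for 4 h at 37 °C, then fixed and immunostained for TAZ with Hoechst nuclear counterstain and imaged by high-content imaging. Read-out is the nuclear/cytoplasmic-ring fluorescence ratio, normalized to DMSO (0%) and an inhibitor control (100%); EC50 from four-parameter fit.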

[2] = molecular target: Human LATS2 catalytic domain (Homo sapiens (Human), UniProt Q9NRM7); test: LATS2 High ATP HTRF Assay; format: biochemical; conditions: no asterisk: LATS2 High ATP HTRF Assay, 5000 μM ATP, 0.05 nM LATS2
Summary of the method: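 LATS2 catalytic domain (G553-V1088) co-purified with Mob1b, 0.05 nM, pre-incubated 10 min with compound, then 5000 μM ATP and 0.5 μM STK S1 peptide in HEPES pH7.2 for 2 h at room temperature. HTRF 665/620 nm read; IC50 by four-parameter fit, Ki via Cheng-Prusoff with ATP Km 105 μM.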

Human LATS2 catalytic domain, sequence (Q9NRM7 553-1088): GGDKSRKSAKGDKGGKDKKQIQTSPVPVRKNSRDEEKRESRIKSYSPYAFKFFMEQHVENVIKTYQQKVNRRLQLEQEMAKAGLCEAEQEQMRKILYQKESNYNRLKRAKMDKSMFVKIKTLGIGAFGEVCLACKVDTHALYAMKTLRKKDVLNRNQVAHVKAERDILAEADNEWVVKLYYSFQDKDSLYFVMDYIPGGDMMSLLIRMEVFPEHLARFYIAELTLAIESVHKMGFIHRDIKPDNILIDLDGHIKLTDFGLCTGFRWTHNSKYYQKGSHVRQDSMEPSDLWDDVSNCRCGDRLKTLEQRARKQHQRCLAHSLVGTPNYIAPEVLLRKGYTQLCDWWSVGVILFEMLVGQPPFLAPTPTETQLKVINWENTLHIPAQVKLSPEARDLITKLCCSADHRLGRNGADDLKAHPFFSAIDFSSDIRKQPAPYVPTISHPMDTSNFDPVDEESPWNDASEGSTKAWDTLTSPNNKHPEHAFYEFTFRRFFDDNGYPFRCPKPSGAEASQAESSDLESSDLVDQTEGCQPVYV
Human LATS2 catalytic domain, sequence (Q7L9L4 whole entry partner, the tested form may be a part): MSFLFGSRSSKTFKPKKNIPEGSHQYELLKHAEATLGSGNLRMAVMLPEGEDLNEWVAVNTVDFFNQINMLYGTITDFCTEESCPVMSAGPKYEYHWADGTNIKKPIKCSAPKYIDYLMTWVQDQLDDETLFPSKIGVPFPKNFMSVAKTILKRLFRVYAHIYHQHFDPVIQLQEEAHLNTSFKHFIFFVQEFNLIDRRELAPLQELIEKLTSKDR

| EC50 [1] | Ki [2] | Compound |
| --- | --- | --- |
| > 10000 nM | 3.29 nM | c1cc(-c2nc(N3CCC4(CCN(c5cn[nH]c5)C4)CC3)c3ccncc3n2)ccn1 [Compound 141, 4-(2-(1H-pyrazol-4-yl)-2,8-diazaspiro[4.5]decan-8-yl)-2-(pyridin-4-yl)pyrido[3,4-d]pyrimidine] |
| 830 nM | 1.62 nM | CC1CC2(CCN(c3nc(-c4ccncc4)nc4cnccc34)CC2)CN1C (stereo not shown) [Compound 168, 4-(2,3-dimethyl-2,8-diazaspiro[4.5]decan-8-yl)-2-(pyridin-4-yl)pyrido[3,4-d]pyrimidine] |
| 1600 nM | 0.41 nM | CC(C)N1CCC2(CCN(c3nc(-c4ccncc4)nc4cnccc34)CC2)C1 [Compound 117, 4-(2-isopropyl-2,8-diazaspiro[4.5]decan-8-yl)-2-(pyridin-4-yl)pyrido[3,4-d]pyrimidine] |
| 580 nM | 0.1 nM | C#CCN1CCC2(CCN(c3nc(-c4ccncc4)nc4cnccc34)CC2)C1 [Compound 261, 4-(2-(prop-2-yn-1-yl)-2,8-diazaspiro[4.5]decan-8-yl)-2-(pyridin-4-yl)pyrido[3,4-d]pyrimidine] |
| > 10000 nM | 8 nM | COc1[nH]ncc1-c1nc(N2CCC3(CCNC3)CC2)c2ccncc2n1 [Compound 257, 2-(5-methoxy-1H-pyrazol-4-yl)-4-(2,8-diazaspiro[4.5]decan-8-yl)pyrido[3,4-d]pyrimidine] |
| 3100 nM | 3.5 nM | FC(F)(F)c1cncc2nc(-c3ccncc3)nc(N3CCC4(CCNC4)CC3)c12 [Compound 246, 2-(pyridin-4-yl)-4-(2,8-diazaspiro[4.5]decan-8-yl)-5-(trifluoromethyl)pyrido[3,4-d]pyrimidine] |
| 570 nM | 0.45 nM | O[C@H]1CC[C@@H](N2CCC3(CCN(c4nc(-c5ccncc5)nc5cnccc45)CC3)C2)C1 (single isomer, unassigned) [Compound 169] |
| 120 nM | 0.28 nM | COc1cncc2nc(-c3ccncc3)nc(N3CCC4(CCN(CC5(O)CCC5)C4)CC3)c12 [Compound 253, 1-((8-(5-methoxy-2-(pyridin-4-yl)pyrido[3,4-d]pyrimidin-4-yl)-2,8-diazaspiro[4.5]decan-2-yl)methyl)cyclobutan-1-ol] |
| 1100 nM | 0.31 nM | Clc1nccc2c(N3CCC4(CCNC4)CC3)nc(-c3ccncc3)nc12 [Compound 272, 8-chloro-2-(pyridin-4-yl)-4-(2,8-diazaspiro[4.5]decan-8-yl)pyrido[3,4-d]pyrimidine trifluoro acetate] |
| 3200 nM | 2 nM | CC(C)c1cncc2nc(-c3ccncc3)nc(N3CCC4(CCNC4)CC3)c12 [Example 240, 5-Isopropyl-2-(pyridin-4-yl)-4-(2,8-diazaspiro[4.5]decan-8-yl)pyrido[3,4-d]pyrimidine] |
| 6800 nM | 4.3 nM | c1cc(-c2nc(N3CCC4(CC3)CC3COCCN3C4)c3ccncc3n2)ccn1 (racemic) [Example 218, 1-(2-(pyridin-4-yl)pyrido[3,4-d]pyrimidin-4-yl)hexahydrospiro[piperidine-4,7′-pyrrolo[2,1-c][1,4]oxazine]] |
| 1500 nM | 1.2 nM | CN(C)S(=O)(=O)CCN1CCC2(CCN(c3nc(-c4ccncc4)nc4cnccc34)CC2)C1 [Example 215, N,N-dimethyl-2-(8-(2-(pyridin-4-yl)pyrido[3,4-d]pyrimidin-4-yl)-2,8-diazaspiro[4.5]decan-2-yl)ethanesulfonamide] |
| 130 nM | 0.016 nM | Cc1n[nH]cc1-c1nc(N2CCC3(CCN(C)C3)CC2)c2cc(Cc3ccccc3)ncc2n1 [Example 226, 6-benzyl-2-(3-methyl-1H-pyrazol-4-yl)-4-(2-methyl-2,8-diazaspiro[4.5]decan-8-yl)pyrido[3,4-d]pyrimidine] |
| 470 nM | 0.19 nM | C#CCCN1CCC2(CCN(c3nc(-c4ccncc4)nc4cnccc34)CC2)C1 [Compound 256, 4-(2-(but-3-yn-1-yl)-2,8-diazaspiro[4.5]decan-8-yl)-2-(pyridin-4-yl)pyrido[3,4-d]pyrimidine] |
| 4600 nM | 0.7 nM | c1cc2c(N3CCC4(CCNC4)CC3)nc(-c3ccnc4[nH]ccc34)nc2cn1 [Compound 156, 2-(1H-pyrrolo[2,3-b]pyridin-4-yl)-4-(2,8-diazaspiro[4.5]decan-8-yl)pyrido[3,4-d]pyrimidine] |
| 260 nM | 0.028 nM | COc1cncc2nc(-c3ccncc3)nc(N3CCC4(CCNC4)CC3)c12 [Example 233, 5-Methoxy-2-(pyridin-4-yl)-4-(2,8-diazaspiro[4.5]decan-8-yl)pyrido[3,4-d]pyrimidine] |
| 3800 nM | 0.043 nM | NS(=O)(=O)CCN1CCC2(CCN(c3nc(-c4ccncc4)nc4cnccc34)CC2)C1 [Compound 109, 2-(8-(2-(pyridin-4-yl)pyrido[3,4-d]pyrimidin-4-yl)-2,8-diazaspiro[4.5]decan-2-yl)ethanesulfonamide] |
| 250 nM | 0.028 nM | Cc1[nH]ncc1-c1nc(N2CCC3(CCN(C)C3)CC2)c2ccnc(Cl)c2n1 [Compound 262, 8-chloro-2-(5-methyl-1H-pyrazol-4-yl)-4-(2-methyl-2,8-diazaspiro[4.5]decan-8-yl)pyrido[3,4-d]pyrimidine] |
| 570 nM | 0.039 nM | COc1cncc2nc(-c3ccncc3)nc(N3CCC4(CCN(CC(F)F)C4)CC3)c12 [Compound 280, 4-(2-(2,2-difluoroethyl)-2,8-diazaspiro[4.5]decan-8-yl)-5-methoxy-2-(pyridin-4-yl)pyrido[3,4-d]pyrimidine] |
| 490 nM | 0.13 nM | FCC1CC2(CCN(c3nc(-c4ccncc4)nc4cnccc34)CC2)CN1 (racemic) [Example 216, 4-(3-(fluoromethyl)-2,8-diazaspiro[4.5]decan-8-yl)-2-(pyridin-4-yl)pyrido[3,4-d]pyrimidine] |
| 2700 nM | 0.067 nM | Cc1[nH]ncc1-c1nc(N2CCC3(CC2)CCN([C@@H]2CC[C@H]2O)C3)c2ccncc2n1 (single isomer, unassigned) [Example 228] |
| 1100 nM | 0.37 nM | CN1CCC2(CCN(c3nc(-c4ccncc4)nc4c(Cl)nccc34)CC2)C1 [Compound 266, 8-chloro-4-(2-methyl-2,8-diazaspiro[4.5]decan-8-yl)-2-(pyridin-4-yl)pyrido[3,4-d]pyrimidine] |
| 1900 nM | 1.87 nM | O[C@H]1CC[C@H]1N1CCC2(CCN(c3nc(-c4ccncc4)nc4cnccc34)CC2)C1 (single isomer, unassigned) [Compound 181] |
| 410 nM | 0.19 nM | COCC1CC2(CCN(c3nc(-c4ccncc4)nc4cncc(OC)c34)CC2)CN1 (stereo not shown) [Compound 276, 5-methoxy-4-(3-(methoxymethyl)-2,8-diazaspiro[4.5]decan-8-yl)-2-(pyridin-4-yl)pyrido[3,4-d]pyrimidine] |
| 330 nM | 0.041 nM | C#CC(C)(O)CN1CCC2(CCN(c3nc(-c4ccncc4)nc4cnccc34)CC2)C1 (stereo not shown) [Compound 271, 2-methyl-1-(8-(2-(pyridin-4-yl)pyrido[3,4-d]pyrimidin-4-yl)-2,8-diazaspiro[4.5]decan-2-yl)but-3-yn-2-ol] |
| 2800 nM | 0.76 nM | COCc1nccc2c(N3CCC4(CCNC4)CC3)nc(-c3ccncc3)nc12 [Compound 242, 8-(methoxymethyl)-2-(pyridin-4-yl)-4-(2,8-diazaspiro[4.5]decan-8-yl)pyrido[3,4-d]pyrimidine] |
